What all share (experiment): inhibition of tumour cell growth, NCI panel, 48 h
For test [1], the system named is U-251.
The subject of test [2] is MOLT-4.
The test system of test [3] is K562.
In test [4] the test system is SNB-19.
The test system of test [5] is A498.
Test [6] deals with OVCAR-4.
The subject of test [7] is SW-620.
For test [8], the system named is KM12.
The subject of test [9] is HCT-15.
Test [10] concerns HCC 2998.
In test [11] the test system is UACC-62.
In test [12] the test system is OVCAR-5.
Test [13] deals with SF-268.
Test [14] deals with HL-60.
For test [15], the system named is SK-MEL-2.
Test [16] deals with SK-OV-3.
The subject of test [17] is NCI-H460.
Test [18] concerns COLO 205.
Test [19] relates to SNB-75.

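Method: 48-hour compound exposure of cells in 96-well plates, five concentrations, linear interpolation of endpoints. GI50 is the concentration that inhibits growth by half.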 The source made the active and inactive calls. Rule as the data show it: active = GI50 up to about 1.1 µM and inactive = higher. A value given as a limit tells only on which side of the number the result lay.

In the case of `CN(C)CCNC(=O)c1cc(Cl)cc2cc3ccccc3nc12`, the GI50 was 1.64 µM (inactive) in test [1]; 0.396 µM (active) in test [2]; 1.01 µM (active) in test [3]; 1.33 µM (inactive) in test [4]; 0.179 µM (active) in [5]; 2.2 µM (inactive) in test [6]. In addition, the GI50 is 0.519 µM (active) in test [7]; 1.17 µM (inactive) in [8]; 0.755 µM in [9]; 1.39 µM (inactive) in [10]; 0.652 µM (active) in [11]; 1.15 µM (inactive) in [12]. Also, the GI50 in test [13] is 1.22 µM (inactive); in test [14], 0.578 µM (active); in [15], 1.98 µM (inactive); in test [16], 2.21 µM (inactive); in test [17] it was 0.311 µM (active); in test [18] it was 0.433 µM (active). The GI50 in test [19] was 2.27 µM (inactive).

Regarding `CCOC(=O)/C=C/c1c[nH]c(C(=O)OCC)c1`, the GI50 in test [1] was > 100 µM (inactive); in test [2], > 100 µM (inactive); in [3] it was 51.5 µM (inactive); in test [4], > 100 µM (inactive); in test [5] it was > 100 µM (inactive); in test [6], > 100 µM (inactive). In addition, the GI50 in [7] is > 100 µM (inactive); in test [8], > 100 µM (inactive); in test [9] it was above 100 µM; in test [10], > 100 µM (inactive); in test [11] it was > 69.3 µM (inactive); in [12] it was > 100 µM (inactive). For the same compound, the GI50 in [13], in [14], in test [15], in test [16], in test [17] and in [18] was > 100 µM (inactive) throughout. Further, the GI50 in test [19] is > 66.1 µM (inactive).

On to `O=C(OCc1ccccc1)OOC(=O)OCc1ccccc1`, for which the GI50 in [1], in test [2], in test [3], in test [4], in test [5] and in test [6] was > 100 µM (inactive) throughout. In addition, the GI50 in test [7] was > 100 µM (inactive); in test [8] it was > 100 µM (inactive); in test [9], above 100 µM; in test [10], > 100 µM (inactive); in [11], > 100 µM (inactive); in [12], > 100 µM (inactive). Further, the GI50 in [13], in test [14], in test [15], in test [16], in test [17] and in [18] was > 100 µM (inactive) in each case. Besides, in test [19], the GI50 was 99.1 µM (inactive).

In the case of `C=C1C[C@@H](O)C[C@@]2(C)C[C@@H]3OC(=O)C(=C)[C@@H]3C[C@H]12`, the GI50 is 12.2 µM (inactive) in [1]; 3.2 µM (inactive) in [2]; 4.19 µM (inactive) in [3]; 5.21 µM (inactive) in test [4]; 12.4 µM (inactive) in test [5]; 15.2 µM (inactive) in test [6]. Also, the GI50 in test [7] was 5.42 µM (inactive); in test [8], 6.62 µM (inactive); in test [9] it was 4.42 µM; in test [10], 3.82 µM (inactive); in test [11] it was 5.96 µM (inactive); in test [12], 7.36 µM (inactive). In addition, the GI50 is 5.46 µM (inactive) in test [13]; 1.89 µM (inactive) in [14]; 11.9 µM (inactive) in test [15]; 20.7 µM (inactive) in test [16]; 16.5 µM (inactive) in test [17]; 1.61 µM (inactive) in [18]. The GI50 in test [19] is 8.47 µM (inactive).

In the case of `COC(=O)C1C(O)C(C)C(O)C(C)(O)/C=C\C=C(C)C(=O)Nc2c(C)c(OC(C)=O)c3c(c2O)C(=O)C(C)=C2OCOC(=C23)C(C)=CC(C)(O)C(O)C(C)C1OC(C)=O` (stereo not given), the GI50 in test [1] was 57.4 µM (inactive); in test [2], 38 µM (inactive); in [3] it was 37.4 µM (inactive); in test [4], 89.9 µM (inactive); in test [5], 49.8 µM (inactive); in [6], 75 µM (inactive). In addition, the GI50 is 38.3 µM (inactive) in test [7]; 26.7 µM (inactive) in test [8]; 35.5 µM in test [9]; 34.4 µM (inactive) in [10]; 21.1 µM (inactive) in [11]; > 100 µM (inactive) in test [12]. In addition, the GI50 was 46.6 µM (inactive) in [13]; 28.4 µM (inactive) in [14]; 19.6 µM (inactive) in [15]; > 95.1 µM (inactive) in test [16]; 26.1 µM (inactive) in [17]; 18.6 µM (inactive) in [18]. In [19], the GI50 was 31 µM (inactive).

Take `N/N=C(\C(=O)Nc1c(Cl)cc([N+](=O)[O-])cc1Cl)C(c1cnc2ccc([N+](=O)[O-])cc2n1)[N+](=O)[O-]` (stereo not given): the GI50 in test [1] is > 100 µM (inactive); in test [2] it was 47.6 µM (inactive); in test [3] it was 46.6 µM (inactive); in [4] it was > 100 µM (inactive); in test [5] it was > 100 µM (inactive); in test [6], > 100 µM (inactive). Also, the GI50 in test [7] is 99.3 µM (inactive); in [8], 50.1 µM (inactive); in test [9] it was above 100 µM; in test [10], 82.2 µM (inactive); in test [11] it was 36.9 µM (inactive); in [12], > 100 µM (inactive). Moreover, the GI50 was > 100 µM (inactive) in test [13]; 28.1 µM (inactive) in test [14]; > 100 µM (inactive) in test [15]; > 100 µM (inactive) in test [16]; > 100 µM (inactive) in test [17]; > 100 µM (inactive) in test [18]. In addition, in [19], the GI50 is 56.9 µM (inactive).

In the case of `CCOC(=O)CNC(=O)NC12CC3CC(CC(C3)C1)C2`, the GI50 in test [1] was 269 µM (inactive); in test [2], 180 µM (inactive); in [3], 226 µM (inactive); in test [4], 270 µM (inactive); in [5], 147 µM (inactive); in [6], 294 µM (inactive). The GI50 in [7] is 247 µM (inactive); in test [8] it was 150 µM (inactive); in test [9], 229 µM; in [10] it was 142 µM (inactive); in [11], 125 µM (inactive); in test [12], 432 µM (inactive). Also, the GI50 is 284 µM (inactive) in test [13]; 177 µM (inactive) in test [14]; 141 µM (inactive) in test [15]; > 418 µM (inactive) in test [16]; 136 µM (inactive) in [17]; 137 µM (inactive) in test [18]. Moreover, the GI50 in [19] is 110 µM (inactive).

Consider `CC(=O)OCC1OC(Nc2ncc(-c3ccc(C)cc3)s2)C(OC(C)=O)C(OC(C)=O)C1OC(C)=O` (stereo not given), for which the GI50 was 56.8 µM (inactive) in test [1]; 24.6 µM (inactive) in test [2]; 34.2 µM (inactive) in [3]; > 100 µM (inactive) in test [4]; 48.2 µM (inactive) in test [5]; 27 µM (inactive) in test [6]. For the same compound, the GI50 is 74.5 µM (inactive) in test [7]; 36.1 µM (inactive) in [8]; 37.5 µM in [9]; 23.3 µM (inactive) in [10]; 27 µM (inactive) in test [11]; 38.1 µM (inactive) in [12]. Further, the GI50 in test [13] was 45.5 µM (inactive); in [14] it was 21 µM (inactive); in [15] it was 34 µM (inactive); in test [16] it was 68.4 µM (inactive); in test [17], 31.5 µM (inactive); in test [18], 40.5 µM (inactive). Also, in [19], the GI50 is 39 µM (inactive).

Consider `COC(=O)C(/C(=N/NC(N)=S)C(=O)Nc1ccccc1[N+](=O)[O-])c1cnc2ccccc2n1` (stereo not given), for which the GI50 in test [1] was > 100 µM (inactive); in [2], 83 µM (inactive); in [3] it was > 100 µM (inactive); in [4] it was > 100 µM (inactive); in [5] it was > 100 µM (inactive); in [6], > 100 µM (inactive). Moreover, the GI50 in test [7] is > 100 µM (inactive); in [8], > 100 µM (inactive); in test [9], above 100 µM; in test [10] it was > 100 µM (inactive); in test [11], > 100 µM (inactive); in test [12], > 100 µM (inactive). The GI50 in test [13], in [14], in test [15], in [16], in test [17] and in test [18] was > 100 µM (inactive) in each case. Besides, the GI50 in test [19] is > 100 µM (inactive).

For the compound `C[S+](C)CC1OC(n2cnc3c(N)ncnc32)C(O)C1O` (stereo not given), the GI50 in test [1], in test [2], in [3], in test [4], in [5] and in test [6] was > 225 µM (inactive) throughout. Besides, the GI50 in test [7] is > 225 µM (inactive); in test [8], > 225 µM (inactive); in test [9], above 225 µM; in test [10], > 225 µM (inactive); in [11], > 96.2 µM (inactive); in test [12], > 225 µM (inactive). The GI50 in [13], in test [14], in test [15], in test [16], in test [17] and in test [18] was > 225 µM (inactive) each time. Also, the GI50 in test [19] was > 225 µM (inactive).

For the origin of these results see ChEMBL document CHEMBL1201862, “PubChem BioAssay data set” (2004).
